Results as given in PMC9785777, “Antidiabetic Potential of Novel 1,3,5-Trisubstituted-2-Thioxoimidazloidin-4-One Analogues: Insights into α-Glucosidase, α-Amylase, and Antioxidant Activities” (Pharmaceuticals, 2022).

Columns and labels:
[1] = target: T1, α-glucosidase enzyme (EC3.2.1.20) (Saccharomyces cerevisiae, UniProt P53341); test: biochemical; details: for inhibition at 1 µg/mL / inhibition at 10 µg/mL / inhibition at 100 µg/mL / inhibition at 1000 µg/mL: read-out: % inhibition of α-glucosidase
T1 construct: purchased Sigma-Aldrich
Description: The α-glucosidase enzyme is mainly expressed in the small intestine and catalyzes the breakdown of carbohydrates into glucose units by cleaving the glucosidic bonds. α-Glucosidase blockers are the first-line drugs for the treatment of non-insulin-dependent DM by suppressing carbohydrate hydrolysis and consequently retarding glucose absorption into the bloodstream and reducing postprandial hyperglycemia. α-Glucosidase is, thus, considered to be an attractive pharmaceutical target for the treatment of […] via control of the blood glucose levels. Accordingly, there is a continuous need to develop a potential class of α-glucosidase inhibitors. Toward this aim, we explored the potency of the synthesized compounds to inhibit the activity of α-glucosidase. We examined the inhibitory activity of the synthesized compounds following the reported assay by Peytam et al.. Thus, the compounds at different concentrations (1000, 100, 10, and 1 µg/mL) were incubated with α-glucosidase and subsequently […] was added and the absorbance was monitored at 405 nm. […] To further investigate the structural aspects of 1,3-thiohydantoin scaffold, a substitution at the N1-position with the methyl-proponate group was performed. […] Nevertheless, it has adverse gastrointestinal effects including diarrhea and flatulence. Thus, the discovery of a novel class of potent antidiabetic agents is urgently demanded.
An ELISA reader was used to assess the inhibition of α-glucosidase by 1,3,5-trisubstituted-2-thioxoimidazolidin-4-ones derivatives at various doses (1000, 100, 10, and 1 µg/mL) according to Peytam et al.. […] Then, the substrate (25 µL, 4 mM) was added to the mentioned mixture and allowed to incubate at 37 °C for 20 min. Finally, the change in absorbance at 405 nm was monitored using a Cytation 3 hybrid microplate reader (BioTek, Winooski, VT, USA). […] GraphPad prism 6.0 was used to calculate the IC50 values of the investigated compounds from the nonlinear regression curve (Systat Software, Inc. Tools for Science) (https://www.graphpad.com/scientific-software/prism/ (accessed on 1 September 2022)).

[2] = target: T2, α-amylase enzyme (Sus scrofa, UniProt P00690); test: α-amylase inhibition assay (DNSA, absorbance 595 nm); format: biochemical
T2 sequence (P00690 16-511): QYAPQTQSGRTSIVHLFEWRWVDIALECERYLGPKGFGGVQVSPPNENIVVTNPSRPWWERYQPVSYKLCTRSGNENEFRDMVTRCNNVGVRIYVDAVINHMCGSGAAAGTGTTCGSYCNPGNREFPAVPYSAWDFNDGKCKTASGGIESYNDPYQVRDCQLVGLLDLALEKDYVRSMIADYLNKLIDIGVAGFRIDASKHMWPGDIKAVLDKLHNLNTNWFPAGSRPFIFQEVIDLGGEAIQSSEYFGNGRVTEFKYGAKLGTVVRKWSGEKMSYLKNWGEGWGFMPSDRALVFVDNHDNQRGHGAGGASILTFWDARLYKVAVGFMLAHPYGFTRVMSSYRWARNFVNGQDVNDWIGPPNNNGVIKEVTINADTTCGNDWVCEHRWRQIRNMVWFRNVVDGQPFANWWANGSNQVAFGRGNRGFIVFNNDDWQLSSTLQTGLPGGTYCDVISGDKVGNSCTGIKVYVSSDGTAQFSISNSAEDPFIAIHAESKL
Description: Furthermore, pancreatic α-amylase mediates the activity of glycoproteins in the small intestine membrane, such as sucrase-isomaltase and sodium/glucose cotransporter 1, via binding with N-linked oligosaccharides. […] However, attempts to find novel antagonists with enhanced effectiveness and minimum adverse effects are still worth investigating. In this regard, we examined the inhibitory activity of the synthesized compounds 4a–b, 5a–b, and 7a–b toward α-amylase activity. Therefore, compounds at different concentrations (100, 10, 1, and 0.1 µg/mL) were mixed with the α-amylase enzyme and subsequently 3,5-dinitrosalicylic acid was added and the absorption was assessed at 595 nm. […] To date, several potent natural and synthetic antagonists with dual inhibitory activities toward α-amylase and α-glucosidase enzymes have been reported which succeeded in being applied in clinics.
The inhibitory activity of synthesized 1,3,5-trisubstituted-2-thioxoimidazolidin-4-ones derivatives toward α-amylase activity was determined by ELISA analysis according to Bernfeld and Colowick. The α-amylase enzyme was provided by Sigma-Aldrich and the stock solution was prepared in DMSO (10 mg/10 mL). […] Briefly, α-amylase enzyme (100 mg, 1 unit per mL) was mixed in 100 mL of a 20 mM sodium phosphate buffer (pH 6.9). […] After incubation, 100 μL of the DNSA reagent was added to this mixture, and then heated in a water bath at 85 °C for 15 min. The reaction mixture was taken from the water bath, cooled, and the absorbance value at 595 nm was assessed. Individual blanks were created in order to adjust the background absorbance. A control experiment was carried out following the same protocol using DMSO. The α-amylase enzyme activity and percentage of inhibition were determined using the following formula: % Inhibition=control−test/control×100

[3] = DPPH free radical scavenging assay
Description: The antioxidant capability of compounds 5a and 7a was estimated utilizing the DPPH (2,2-diphenyl-1- picrylhydrazyl) scavenging assay to assess the free radical scavenger activity. DPPH is a stable free radical substrate with a purple color which upon reaction with an antioxidant compound, converts into 1,1-diphenyl-2-picryl hydrazine, a […] compound. The DPPH assay is widely applied for the investigation of superoxide radical scavenging activity. In this regard, compounds 5a and 7a were incubated at different concentrations (3.12, 6.25, 12.5, 25, 50, 100, and 200 µg/mL) with DPPH substrate and the absorption was assessed by ELISA at 510 nm. In our investigations, Trolox, a water-soluble analogue of vitamin E, was applied as a standard antioxidant reference drug. […] Further, Qamar et al. synthesized and evaluated the antioxidant activity of some novel N3-substituted-2-thiohydantoins.
According to Valko et al., the ELISA approach was used to analyze the free-radical DPPH scavenging activity of compounds (5a and 7a) at different concentrations (3.12, 6.25, 12.5, 25, 50, 100, and 200 µg/mL). The DPPH assay assesses the hydrogen-donating activity and thus provides an evaluation of the antioxidant activity via estimating the DPPH free-radical scavenging activity. The color intensity of the reaction mixture was measured after a purple-colored stable free radical (DPPH) was reduced into the yellow-colored diphenylpicryl hydrazinem. Briefly, 200 µL of different concentrations of compounds 5a and 7a were mixed with 50 µL of DPPH (0.659 mM) solution, and the mixture was incubated at 25 °C for 20 min. The absorbance of the reaction mixture was estimated after incubation at 510 nm. In our investigations, trolox was employed as standard reference drug. A control reaction was performed, and the inhibitory efficiency of DPPH radical-scavenging activity was determined using the equation below: % Inhibition = (A0 − A1)/A0 × 100 (1) where A0 is absorbance of […] and A1 is the absorbance of the compound.

T1 sequence (P53341 whole entry): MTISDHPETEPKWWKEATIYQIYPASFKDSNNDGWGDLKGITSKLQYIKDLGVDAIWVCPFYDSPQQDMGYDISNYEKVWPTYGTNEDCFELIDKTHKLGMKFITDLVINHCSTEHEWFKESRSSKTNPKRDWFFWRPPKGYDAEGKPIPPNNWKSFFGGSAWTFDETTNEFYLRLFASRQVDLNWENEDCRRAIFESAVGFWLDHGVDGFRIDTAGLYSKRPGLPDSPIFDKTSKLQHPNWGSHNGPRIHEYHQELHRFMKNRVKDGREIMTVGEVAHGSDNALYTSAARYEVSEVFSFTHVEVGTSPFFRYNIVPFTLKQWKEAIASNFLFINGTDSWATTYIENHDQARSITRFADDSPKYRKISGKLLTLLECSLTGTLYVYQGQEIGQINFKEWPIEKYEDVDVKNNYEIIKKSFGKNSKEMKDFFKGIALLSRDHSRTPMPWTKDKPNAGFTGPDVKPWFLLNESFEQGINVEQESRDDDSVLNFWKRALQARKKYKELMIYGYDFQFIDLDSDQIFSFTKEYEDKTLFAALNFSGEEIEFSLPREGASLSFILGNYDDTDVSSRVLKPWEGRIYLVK

| DPPH free radical scavenging IC50 ([3]; n = 4) | SMILES | IC50 [1] | inhibition at 1 µg/mL [1] | inhibition at 10 µg/mL [1] | inhibition at 100 µg/mL [1] | inhibition at 1000 µg/mL [1] | melting point | % inhibition of α-amylase ([2]; 0.1 µg/mL (log -1)) | % inhibition of α-amylase ([2]; 1 µg/mL (log 0)) | % inhibition of α-amylase ([2]; 10 µg/mL (log 1)) | % inhibition of α-amylase ([2]; 100 µg/mL (log 2)) | %RSA (DPPH radical scavenging activity) ([3]; 3.12 µg/mL) | %RSA (DPPH radical scavenging activity) ([3]; 6.25 µg/mL) | %RSA (DPPH radical scavenging activity) ([3]; 12.5 µg/mL) | %RSA (DPPH radical scavenging activity) ([3]; 25 µg/mL) | %RSA (DPPH radical scavenging activity) ([3]; 50 µg/mL) | %RSA (DPPH radical scavenging activity) ([3]; 100 µg/mL) | %RSA (DPPH radical scavenging activity) ([3]; 200 µg/mL) |
| --- | --- | --- | --- | --- | --- | --- | --- | --- | --- | --- | --- | --- | --- | --- | --- | --- | --- | --- |
| – | COC(=O)CCN1C(=S)N(/N=C(\C)c2ccccc2O)C(=O)/C1=C/c1cc(Br)ccc1OC(C)=O [Compound 7b, Methyl [5-(5-bromo-2-acetoxybenzylidene)-4-oxo-3-(2-hydroxyphenylethylidene)amino-2-thioxoimidazolidin-1-yl] propionate] | 21.8 µM | 28% | 47.8% | 70.4% | 86.5% | 172 °C | – | – | – | – | – | – | – | – | – | – | – |
| – | C/C(=N\N1C(=O)/C(=C/c2ccccc2O)NC1=S)c1ccccc1O [Compound 4a, 5-(2-Hydroxybenzylidene)-3-(2-hydroxyphenylethylidene)-amino-2-thioxoimidazolidin-4-one] | 57.1 µM | 24.5% | 44.9% | 62.6% | 83.1% | 256 °C | – | – | – | – | – | – | – | – | – | – | – |
| – | COC(=O)CCN1C(=S)N(/N=C(\C)c2ccccc2O)C(=O)/C1=C/c1cc(Br)ccc1O [Compound 5b, Methyl [5-(5-Bromo-2-hydroxybenzylidene)-4-oxo-3-(2-hydroxyphenylethylidene)amino-2-thioxoimidazolidin-1-yl] propionate] | 21.3 µM | 27.6% | 50.3% | 71.4% | 87.4% | 192 °C | – | – | – | – | – | – | – | – | – | – | – |
| – | C[C@H]1O[C@H](O[C@H]2[C@H](O)[C@@H](O)[C@@H](O[C@H]3[C@H](O)[C@@H](O)C(O)O[C@@H]3CO)O[C@@H]2CO)[C@H](O)[C@@H](O)[C@@H]1N[C@H]1C=C(CO)[C@@H](O)[C@H](O)[C@H]1O (stereo partly shown) [Acarbose, reference compound] | – | 31.8% | 58.4% | 76.9% | 88.4% | – | 37.2% | 58.3% | 80.3% | 92.1% | – | – | – | – | – | – | – |
| – | C/C(=N\N1C(=O)/C(=C/c2cc(Br)ccc2O)NC1=S)c1ccccc1O [Compound 4b, 5-(5-Bromo-2-hydroxybenzylidene)-3-(2-hydroxyphenylethylidene)-amino-2-thioxoimidazolidin-4-ones] | ~72.4 µM | 20.4% | 36.4% | 58.9% | 84.7% | 263 °C | – | – | – | – | – | – | – | – | – | – | – |
| 58.09 µg/mL | Cc1c(C)c2c(c(C)c1O)CCC(C)(C(=O)O)O2 (stereo not shown) [Trolox, reference compound] | – | – | – | – | – | – | – | – | – | – | 11.3811% | 20.2046% | 32.4808% | 47.4425% | 63.2992% | 82.6087% | 89.0026% |
